Earlier results in US5908934A, “Process for the preparation of chiral ketone intermediates useful for the preparation of flavopiridol and analogs” (Bristol-Myers Squibb Company, priority 1997, dated 1999).

Test system: apoptosis
Conditions: combination with known cytotoxic agents; J. Cell Sci., 108, 2897 (1995)

In the case of Cn1cnc2c(NCc3ccccc3)nc(NCCO)nc21 [olomucine], the “synergy with known cytotoxic agents in inducing apoptosis” value is listed as “act synergistically with known cytotoxic agents in inducing apoptosis”.
